Laboratory results reported in patent US12012409B2, “Bicyclic heterocycles as FGFR inhibitors” (Incyte Corporation, priority 2020, dated 2024).

Assays:
Assay type in all cases: biochemical
Conditions in all cases: wild-type un-phosphorylated protein; pre-incubated for 4 hours; ATP near or below Km
[1] = target: wild-type un-phosphorylated FGFR4 (Homo sapiens, UniProt P22455); assay: FGFR Enzymatic Assay (FRET peptide phosphorylation), FGFR4
Description: (§1) The inhibitor potency of the exemplified compounds was determined in an enzyme discontinuous assay that measures peptide phosphorylation using FRET measurements to detect product formation. Inhibitors were serially diluted in DMSO and a volume of 0.2 μL was transferred to the wells of a 384-well plate. […] Appropriate controls (enzyme blank and enzyme with no inhibitor) were included on the plate. […] The ATP Km values were pre-determined in a separate series of experiments. […] The plate was allowed to equilibrate for ˜10 minutes at ambient temperature before scanning on a PheraStar plate reader (BMG Labtech) instrument.
(§2) Either GraphPad prism or XLfit was used to analyze the data. The IC50 values were derived by fitting the data to a four parameter logistic equation producing a sigmoidal dose-response curve with a variable Hill coefficient. Prism equation: Y=Bottom+(Top−Bottom)/(1+10^((LogIC50−X)*Hill slope)); XLfit equation: Y=(A+((B−A)/(1+((X/C)^D)))) where X is the logarithm of inhibitor concentration and Y is the response.
(§3) The data in Table 1 was measured in wild-type un-phosphorylated FGFR1, FGFR2, FGFR3 and FGFR4 protein.

[2] = target: wild-type un-phosphorylated FGFR3 (Homo sapiens, UniProt P22607); assay: FGFR Enzymatic Assay (FRET peptide phosphorylation), FGFR3
Description: as §1, §2

[3] = target: wild-type un-phosphorylated FGFR1 (Homo sapiens, UniProt P11362); assay: FGFR Enzymatic Assay (FRET peptide phosphorylation), FGFR1
Description: as §1, §2

[4] = target: wild-type un-phosphorylated FGFR2 (Homo sapiens, UniProt P21802); assay: FGFR Enzymatic Assay (FRET peptide phosphorylation), FGFR2
Description: as §1, §2, §3

Sequence of wild-type un-phosphorylated FGFR4 (P22455 22-802): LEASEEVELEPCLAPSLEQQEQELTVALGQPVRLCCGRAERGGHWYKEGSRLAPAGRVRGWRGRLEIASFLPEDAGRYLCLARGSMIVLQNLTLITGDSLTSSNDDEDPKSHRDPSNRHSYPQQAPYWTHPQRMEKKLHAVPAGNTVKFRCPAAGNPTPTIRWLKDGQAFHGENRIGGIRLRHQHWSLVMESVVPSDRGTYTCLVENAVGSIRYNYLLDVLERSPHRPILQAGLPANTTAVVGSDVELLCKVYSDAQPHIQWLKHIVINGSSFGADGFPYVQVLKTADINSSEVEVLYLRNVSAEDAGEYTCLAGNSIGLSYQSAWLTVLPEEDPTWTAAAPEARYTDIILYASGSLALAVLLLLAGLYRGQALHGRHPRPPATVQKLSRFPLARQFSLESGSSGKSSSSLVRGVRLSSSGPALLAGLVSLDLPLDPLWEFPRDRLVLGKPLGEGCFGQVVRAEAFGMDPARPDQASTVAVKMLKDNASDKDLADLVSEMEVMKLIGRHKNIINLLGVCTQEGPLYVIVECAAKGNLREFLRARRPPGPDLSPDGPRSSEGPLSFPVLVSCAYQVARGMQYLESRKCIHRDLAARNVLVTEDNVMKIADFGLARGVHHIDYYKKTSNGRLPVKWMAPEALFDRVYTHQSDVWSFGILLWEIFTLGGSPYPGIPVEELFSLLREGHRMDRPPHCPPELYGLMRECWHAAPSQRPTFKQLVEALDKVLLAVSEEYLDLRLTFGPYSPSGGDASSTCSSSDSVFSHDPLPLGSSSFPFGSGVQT
Sequence of wild-type un-phosphorylated FGFR2 (P21802 22-821): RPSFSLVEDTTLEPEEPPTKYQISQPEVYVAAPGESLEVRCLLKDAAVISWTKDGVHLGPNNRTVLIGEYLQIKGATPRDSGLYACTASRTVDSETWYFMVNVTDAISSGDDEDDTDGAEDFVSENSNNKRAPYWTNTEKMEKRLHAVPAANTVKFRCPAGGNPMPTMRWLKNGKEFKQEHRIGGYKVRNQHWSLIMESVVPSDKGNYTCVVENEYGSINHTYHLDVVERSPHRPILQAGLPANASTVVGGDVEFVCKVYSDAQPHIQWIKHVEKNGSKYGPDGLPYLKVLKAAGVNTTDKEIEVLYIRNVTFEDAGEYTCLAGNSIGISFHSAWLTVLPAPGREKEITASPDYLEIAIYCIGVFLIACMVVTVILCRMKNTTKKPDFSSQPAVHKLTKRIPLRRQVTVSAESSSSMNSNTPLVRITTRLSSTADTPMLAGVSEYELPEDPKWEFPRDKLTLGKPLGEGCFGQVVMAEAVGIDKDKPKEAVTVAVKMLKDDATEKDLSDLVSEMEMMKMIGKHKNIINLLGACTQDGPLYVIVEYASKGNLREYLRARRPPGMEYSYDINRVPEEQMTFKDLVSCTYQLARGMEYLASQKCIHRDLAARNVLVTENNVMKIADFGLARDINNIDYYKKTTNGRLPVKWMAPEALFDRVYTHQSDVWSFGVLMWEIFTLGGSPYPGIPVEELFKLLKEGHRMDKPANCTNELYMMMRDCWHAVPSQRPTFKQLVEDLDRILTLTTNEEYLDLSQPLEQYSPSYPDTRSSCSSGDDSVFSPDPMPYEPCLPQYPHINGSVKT
Sequence of wild-type un-phosphorylated FGFR3 (P22607 23-806): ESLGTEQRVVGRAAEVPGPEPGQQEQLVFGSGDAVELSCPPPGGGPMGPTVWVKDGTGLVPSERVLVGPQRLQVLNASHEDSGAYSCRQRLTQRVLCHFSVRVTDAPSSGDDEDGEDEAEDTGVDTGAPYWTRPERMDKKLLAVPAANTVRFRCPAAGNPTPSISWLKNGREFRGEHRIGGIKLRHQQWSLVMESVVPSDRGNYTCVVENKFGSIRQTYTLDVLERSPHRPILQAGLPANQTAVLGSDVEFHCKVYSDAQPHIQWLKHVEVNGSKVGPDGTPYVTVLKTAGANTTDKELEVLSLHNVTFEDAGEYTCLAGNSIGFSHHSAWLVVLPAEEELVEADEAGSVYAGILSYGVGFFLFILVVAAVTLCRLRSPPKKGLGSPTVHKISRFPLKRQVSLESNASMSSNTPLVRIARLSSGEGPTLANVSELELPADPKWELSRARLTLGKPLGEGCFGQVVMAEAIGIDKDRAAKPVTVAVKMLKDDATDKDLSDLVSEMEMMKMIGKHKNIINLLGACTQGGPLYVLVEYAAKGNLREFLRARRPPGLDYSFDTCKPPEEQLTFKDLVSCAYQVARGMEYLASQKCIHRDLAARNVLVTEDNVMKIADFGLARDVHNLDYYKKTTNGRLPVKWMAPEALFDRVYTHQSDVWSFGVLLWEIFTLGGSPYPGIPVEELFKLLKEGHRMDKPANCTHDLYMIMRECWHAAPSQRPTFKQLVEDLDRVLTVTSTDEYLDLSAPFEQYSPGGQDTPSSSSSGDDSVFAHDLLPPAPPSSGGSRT
Sequence of wild-type un-phosphorylated FGFR1 (P11362 22-822): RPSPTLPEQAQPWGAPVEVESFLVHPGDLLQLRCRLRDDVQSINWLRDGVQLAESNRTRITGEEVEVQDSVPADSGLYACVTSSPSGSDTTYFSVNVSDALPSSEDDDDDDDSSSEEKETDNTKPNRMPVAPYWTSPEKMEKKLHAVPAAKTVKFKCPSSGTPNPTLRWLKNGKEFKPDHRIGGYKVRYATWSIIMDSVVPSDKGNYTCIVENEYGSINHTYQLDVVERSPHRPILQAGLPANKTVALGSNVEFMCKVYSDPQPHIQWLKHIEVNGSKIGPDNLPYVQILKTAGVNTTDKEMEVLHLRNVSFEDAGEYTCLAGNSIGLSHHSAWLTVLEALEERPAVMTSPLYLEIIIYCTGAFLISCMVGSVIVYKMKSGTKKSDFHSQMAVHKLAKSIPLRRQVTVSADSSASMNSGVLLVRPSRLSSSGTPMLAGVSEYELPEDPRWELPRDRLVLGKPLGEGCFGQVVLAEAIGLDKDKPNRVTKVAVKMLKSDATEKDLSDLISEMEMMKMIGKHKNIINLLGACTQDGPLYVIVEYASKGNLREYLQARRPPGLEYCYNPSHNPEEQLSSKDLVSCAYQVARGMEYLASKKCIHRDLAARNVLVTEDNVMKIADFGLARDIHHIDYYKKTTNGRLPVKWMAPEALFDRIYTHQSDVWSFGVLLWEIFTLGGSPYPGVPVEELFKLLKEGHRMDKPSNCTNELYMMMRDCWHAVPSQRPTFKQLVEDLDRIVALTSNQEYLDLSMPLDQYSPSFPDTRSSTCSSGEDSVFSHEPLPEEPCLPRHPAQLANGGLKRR

Row | SMILES | IC50 [1] | IC50 [2] | IC50 [3] | IC50 [4]
1 | CNC(=O)c1cccc(-c2cnc3cc(-c4cnn(C)c4)c(OC)nn23)c1 [Example 2, 3-(6-Methoxy-7-(1-methyl-1H-pyrazol-4-yl)imidazo[1,2-b]pyridazin-3-yl)-N-methylbenzamide] | ≥ 400 nM |  |  | 
2 | CNC(=O)c1cccc(-c2cnc3cc(-c4cnn(C)c4)c(OC)cn23)c1 [Example 1, 3-(6-Methoxy-7-(1-methyl-1H-pyrazol-4-yl)imidazo[1,2-a]pyridine-3-yl)-N-methylbenzamide] | ≥ 400 nM | 10 to 100 nM | ≥ 400 nM | 
3 | CNC(=O)c1cc(F)c(F)c(-c2cnc3cc(-c4cnn5c4CCC5)c(O[C@H]4CCOC4)nn23)c1 [Example 22, (S)-3-(7-(5,6-Dihydro-4H-pyrrolo[1,2-b]pyrazol-3-yl)-6-((tetrahydrofuran-3-yl)oxy)imidazo[1,2-b]pyridazin-3-yl)-4,5-difluoro-N-methylbenzamide] | 100 to 400 nM | < 10 nM | 10 to 100 nM | < 10 nM
4 | CNC(=O)c1cc(F)c(F)c(-c2cnc3cc(-c4cnn(C)c4)c(N[C@H]4CCOC4)nn23)c1 [Example 19, (S)-3,4-Difluoro-N-methyl-5-(7-(1-methyl-1H-pyrazol-4-yl)-6-((tetrahydrofuran-3-yl)amino)imidazo[1,2-b]pyridazin-3-yl)benzamide] |  | < 10 nM | 10 to 100 nM | < 10 nM
5 | CNC(=O)c1cc(-c2cnc3cc(-c4cnn(Cc5cccnc5)c4)c(O[C@H]4CCOC4)nn23)c(F)c(C(F)F)c1 [Example 29, (S)-3-(Difluoromethyl)-4-fluoro-N-methyl-5-(7-(1-(pyridin-3-ylmethyl)-1H-pyrazol-4-yl)-6-((tetrahydrofuran-3-yl)oxy)imidazo[1,2-b]pyridazin-3-yl)benzamide] |  | < 10 nM | 10 to 100 nM | < 10 nM
6 | CNC(=O)c1cc(F)c(F)c(-c2cnc3cc(-c4cnn(C(C)C)c4)c(O[C@H]4CCOC4)nn23)c1 [Example 24, (S)-3,4-Difluoro-5-(7-(1-isopropyl-1H-pyrazol-4-yl)-6-((tetrahydrofuran-3-yl)oxy)imidazo[1,2-b]pyridazin-3-yl)-N-methylbenzamide] |  | < 10 nM | < 10 nM | < 10 nM
7 | CNC(=O)c1cc(-c2cnc3cc(-c4cnn5c4CNCC5)c(O[C@H]4CCOC4)nn23)c(F)c(C(F)F)c1 [Example 28, (S)-3-(Difluoromethyl)-4-fluoro-N-methyl-5-(6-((tetrahydrofuran-3-yl)oxy)-7-(4,5,6,7-tetrahydropyrazolo[1,5-a]pyrazin-3-yl)imidazo[1,2-b]pyridazin-3-yl)benzamide] |  | 10 to 100 nM | ≥ 400 nM | 10 to 100 nM

The remaining lines, values ahead:

Row | IC50 [1] | IC50 [2] | IC50 [3] | IC50 [4] | SMILES
8 | 100 to 400 nM |  |  | < 10 nM | CNC(=O)c1cccc(-c2cnc3cc(-c4cnn(C)c4)c(OC4COC4)nn23)c1 [Example 58, N-Methyl-3-(7-(1-methyl-1H-pyrazol-4-yl)-6-(oxetan-3-yloxy)imidazo[1,2-b]pyridazin-3-yl)benzamide]
9 |  | < 10 nM | 100 to 400 nM | 10 to 100 nM | CNC(=O)c1cc(-c2cnc3cc(-c4ccc(C(C)(C)O)nc4)c(O[C@H]4CCOC4)nn23)c(F)c(C(F)F)c1 [Example 35, (S)-3-(Difluoromethyl)-4-fluoro-5-(7-(6-(2-hydroxypropan-2-yl)pyridin-3-yl)-6-((tetrahydrofuran-3-yl)oxy)imidazo[1,2-b]pyridazin-3-yl)-N-methylbenzamide]
10 |  | < 10 nM | < 10 nM | < 10 nM | CNC(=O)c1cc(F)c(F)c(-c2cnc3cc(-c4cnn(C5CCN(C)CC5)c4)c(O[C@H]4CCOC4)nn23)c1 [Example 71, (S)-3,4-Difluoro-N-methyl-5-(7-(1-(1-methylpiperidin-4-yl)-1H-pyrazol-4-yl)-6-((tetrahydrofuran-3-yl)oxy)imidazo[1,2-b]pyridazin-3-yl)benzamide]
11 |  | < 10 nM | 10 to 100 nM | < 10 nM | CNC(=O)c1cc(CO)c(F)c(-c2cnc3cc(-c4cnn(C)c4)c(O[C@H]4CCOC4)nn23)c1 [Example 40, (S)-4-Fluoro-3-(hydroxymethyl)-N-methyl-5-(7-(1-methyl-1H-pyrazol-4-yl)-6-((tetrahydrofuran-3-yl)oxy)imidazo[1,2-b]pyridazin-3-yl)benzamide]
12 | 10 to 100 nM | < 10 nM | 10 to 100 nM | < 10 nM | CNC(=O)c1cc(-c2cnc3cc(-c4cnn(CCN5CCOCC5)c4)c(O[C@H]4CCOC4)nn23)c(F)c(C(F)F)c1 [Example 30, (S)-3-(Difluoromethyl)-4-fluoro-N-methyl-5-(7-(1-(2-morpholinoethyl)-1H-pyrazol-4-yl)-6-((tetrahydrofuran-3-yl)oxy)imidazo[1,2-b]pyridazin-3-yl)benzamide]
13 |  | < 10 nM | < 10 nM | < 10 nM | CNC(=O)c1cc(F)c(F)c(-c2cnc3cc(-c4cnn(C5CCN(S(=O)(=O)N(C)C)CC5)c4)c(O[C@H]4CCOC4)nn23)c1 [Example 76, (S)-3-(7-(1-(1-(N,N-Dimethylsulfamoyl)piperidin-4-yl)-1H-pyrazol-4-yl)-6-((tetrahydrofuran-3-yl)oxy)imidazo[1,2-b]pyridazin-3-yl)-4,5-difluoro-N-methylbenzamide]
14 |  | < 10 nM | < 10 nM | < 10 nM | CNC(=O)c1cc(-c2cnc3cc(-c4cnn([C@H]5CC[C@H](O)CC5)c4)c(O[C@H]4CCOC4)nn23)c(F)c(C(F)F)c1 [Example 34, 3-(Difluoromethyl)-4-fluoro-5-(7-(1-((1r,4S)-4-hydroxycyclohexyl)-1H-pyrazol-4-yl)-6-(((S)-tetrahydrofuran-3-yl)oxy)imidazo[1,2-b]pyridazin-3-yl)-N-methylbenzamide]
15 |  | 10 to 100 nM | 10 to 100 nM | 10 to 100 nM | CCOc1cccc(-c2cnc3cc(-c4cnn(C)c4)c(O[C@H]4CCOC4)nn23)c1 [Example 47, (S)-3-(3-Ethoxyphenyl)-7-(1-methyl-1H-pyrazol-4-yl)-6-((tetrahydrofuran-3-yl)oxy)imidazo[1,2-b]pyridazine]
